# In the NIST ThermoML archive (doi:10.1016/j.fluid.2006.02.016):
# Where “and” joins values, the source holds several entries; their conditions need not be identical. Equal entries are not always repeated. ± gives the expanded uncertainty stated by the source.
# Details: Liquid
vapor or sublimation pressure (268.15 K) [kPa],vapor or sublimation pressure (278.15 K) [kPa],vapor or sublimation pressure (288.15 K) [kPa],vapor or sublimation pressure (298.15 K) [kPa],vapor or sublimation pressure (308.15 K) [kPa],vapor or sublimation pressure (318.15 K) [kPa],SMILES,vapor or sublimation pressure (273.15 K) [kPa],vapor or sublimation pressure (283.15 K) [kPa],vapor or sublimation pressure (293.15 K) [kPa],vapor or sublimation pressure (303.15 K) [kPa],vapor or sublimation pressure (313.15 K),vapor or sublimation pressure (323.15 K) [kPa]
–,–,–,–,–,–,"FCC(F)(F)F [1,1,1,2-tetrafluoroethane]",294.2 ± 2.5,416.9 ± 3.3,571.9 ± 4.3,770.4 ± 5.6,1012.8 ± 7.1 kPa,1313.8 ± 9.1
407.9 ± 3.3,549.4 ± 4.2,735 ± 5.4,954.8 ± 6.8,1213 ± 8.4,1530.8 ± 10,CCC [propane],474.6 ± 3.7,636.6 ± 4.7,836.2 ± 6,1078.4 ± 7.6,1369 ± 12 kPa and 1363.8 ± 9.4 kPa,1709.2 ± 12
529.2 ± 4,722.4 ± 5.3,962 ± 6.8,1261.8 ± 8.7,1619.8 ± 11,2055.2 ± 14,"CC(F)(F)F [1,1,1-trifluoroethane]",–,–,–,–,–,–
